Data set [1] deals with T1, FLT3-ITD (Homo sapiens, UniProt P36888, ITD).
T1 sequence (P36888 27-993): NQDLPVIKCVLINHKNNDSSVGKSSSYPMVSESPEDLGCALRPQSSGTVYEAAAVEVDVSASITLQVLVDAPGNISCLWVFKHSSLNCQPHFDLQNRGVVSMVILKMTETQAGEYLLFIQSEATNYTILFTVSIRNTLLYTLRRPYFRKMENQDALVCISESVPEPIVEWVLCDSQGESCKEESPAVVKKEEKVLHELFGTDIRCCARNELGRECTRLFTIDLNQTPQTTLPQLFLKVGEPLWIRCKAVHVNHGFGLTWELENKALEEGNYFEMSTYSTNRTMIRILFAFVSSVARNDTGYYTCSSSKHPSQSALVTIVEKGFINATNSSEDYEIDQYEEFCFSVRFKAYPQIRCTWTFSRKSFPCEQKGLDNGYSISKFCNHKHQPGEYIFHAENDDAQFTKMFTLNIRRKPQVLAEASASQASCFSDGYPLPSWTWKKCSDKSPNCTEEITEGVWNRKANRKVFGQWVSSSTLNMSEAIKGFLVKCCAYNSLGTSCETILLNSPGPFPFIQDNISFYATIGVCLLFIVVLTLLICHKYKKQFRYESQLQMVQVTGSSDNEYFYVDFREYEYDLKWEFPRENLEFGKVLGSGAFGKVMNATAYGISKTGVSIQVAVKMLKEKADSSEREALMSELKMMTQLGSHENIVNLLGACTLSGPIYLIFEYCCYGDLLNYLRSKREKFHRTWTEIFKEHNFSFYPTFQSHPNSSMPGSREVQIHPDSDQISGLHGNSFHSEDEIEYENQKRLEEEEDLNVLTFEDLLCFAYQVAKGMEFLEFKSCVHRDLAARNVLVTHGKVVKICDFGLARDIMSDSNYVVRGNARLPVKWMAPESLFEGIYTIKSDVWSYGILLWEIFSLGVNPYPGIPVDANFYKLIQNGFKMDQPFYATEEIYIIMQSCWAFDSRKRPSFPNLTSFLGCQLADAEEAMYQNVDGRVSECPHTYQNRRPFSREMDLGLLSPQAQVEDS
In words: FLT3-ITD kinase inhibition. It is filed as biochemical.

Data set [2] concerns the target HCK (Homo sapiens, UniProt P08631). In words: HCK kinase inhibition. It is filed as biochemical.
For data set [3], the target named is hERG (Homo sapiens, UniProt Q12809). In words: hERG inhibition (automated patch-clamp). It is filed as cell-based. For orientation: Block of hERG is tested as a sign of cardiac risk.

The structures appear in SMILES notation. Counter-ions that a name gives are not always drawn.

The record followed here is patent US9604988B2, “Agent for treating or inhibiting recurrence of acute myeloid leukemia” (RIKEN, priority 2012, dated 2017).

The IC50 is the point on the concentration scale where inhibition reaches its midpoint. Read a low IC50 as inhibition by little substance. In general, inhibition refers to the share of the control response that was lost under treatment.

Chain of HCK (P08631 whole entry): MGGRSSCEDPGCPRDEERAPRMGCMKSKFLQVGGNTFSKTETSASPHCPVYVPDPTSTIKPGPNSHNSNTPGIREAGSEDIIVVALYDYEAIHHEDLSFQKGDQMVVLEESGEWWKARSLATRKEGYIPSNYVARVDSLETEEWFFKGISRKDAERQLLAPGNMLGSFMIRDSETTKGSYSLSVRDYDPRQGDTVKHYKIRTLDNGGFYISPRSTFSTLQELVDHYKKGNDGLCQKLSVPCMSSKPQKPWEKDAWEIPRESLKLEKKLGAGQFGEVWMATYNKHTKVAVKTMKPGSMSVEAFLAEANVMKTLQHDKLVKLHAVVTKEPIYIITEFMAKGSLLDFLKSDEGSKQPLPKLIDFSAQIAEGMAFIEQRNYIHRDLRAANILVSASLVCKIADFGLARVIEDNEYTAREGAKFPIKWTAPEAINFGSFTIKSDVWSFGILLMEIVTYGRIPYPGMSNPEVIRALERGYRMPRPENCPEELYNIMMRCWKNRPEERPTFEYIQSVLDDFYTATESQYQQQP
Chain of hERG (Q12809 whole entry): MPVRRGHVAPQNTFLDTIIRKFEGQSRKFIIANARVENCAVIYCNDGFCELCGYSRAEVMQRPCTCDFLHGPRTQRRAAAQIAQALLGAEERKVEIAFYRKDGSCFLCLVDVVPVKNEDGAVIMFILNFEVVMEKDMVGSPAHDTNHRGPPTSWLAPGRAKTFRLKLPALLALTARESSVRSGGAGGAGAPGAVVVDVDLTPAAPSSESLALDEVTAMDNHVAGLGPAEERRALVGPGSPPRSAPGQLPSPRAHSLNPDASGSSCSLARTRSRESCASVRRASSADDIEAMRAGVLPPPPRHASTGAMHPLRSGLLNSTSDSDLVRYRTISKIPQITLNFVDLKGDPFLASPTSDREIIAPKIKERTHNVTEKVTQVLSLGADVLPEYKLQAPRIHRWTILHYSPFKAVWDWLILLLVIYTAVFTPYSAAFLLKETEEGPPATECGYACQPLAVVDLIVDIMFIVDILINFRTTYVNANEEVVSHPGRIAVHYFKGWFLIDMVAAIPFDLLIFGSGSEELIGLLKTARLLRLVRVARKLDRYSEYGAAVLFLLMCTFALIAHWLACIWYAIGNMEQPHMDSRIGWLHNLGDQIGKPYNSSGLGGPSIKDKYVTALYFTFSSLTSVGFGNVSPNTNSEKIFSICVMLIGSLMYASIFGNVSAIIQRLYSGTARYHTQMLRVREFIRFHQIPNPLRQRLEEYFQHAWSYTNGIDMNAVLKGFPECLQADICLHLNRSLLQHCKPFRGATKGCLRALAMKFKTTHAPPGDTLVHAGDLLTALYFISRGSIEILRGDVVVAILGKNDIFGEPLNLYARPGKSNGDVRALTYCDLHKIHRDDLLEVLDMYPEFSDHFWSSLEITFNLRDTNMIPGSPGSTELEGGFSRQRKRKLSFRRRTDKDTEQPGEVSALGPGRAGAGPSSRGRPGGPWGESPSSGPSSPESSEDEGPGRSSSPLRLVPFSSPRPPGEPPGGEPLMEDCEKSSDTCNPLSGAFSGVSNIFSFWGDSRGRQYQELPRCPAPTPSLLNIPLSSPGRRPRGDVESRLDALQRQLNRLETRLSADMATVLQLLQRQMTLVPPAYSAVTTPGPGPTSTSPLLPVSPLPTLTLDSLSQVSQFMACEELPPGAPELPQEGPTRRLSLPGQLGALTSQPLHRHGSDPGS

On to `Nc1ncnc2c1c(-c1ccc(Oc3ccccc3)cc1)cn2[C@H]1CC[C@H](NC(=O)c2ccccn2)CC1` [Example 18, N-((trans)-4-(4-amino-5-(4-phenoxyphenyl)-7H-pyrrolo[2,3-d]pyrimidin-7-yl)cyclohexyl)picolinamide], for which the IC50 came to 428 nM in data set [1] and 4.55 nM in data set [2].

Regarding `Nc1ncnc2c1c(-c1ccc(Oc3ccccc3)cc1)cn2[C@H]1CC[C@H](N2CCn3c(nnc3C(F)(F)F)C2)CC1` [Example 58, 5-(4-Phenoxyphenyl)-7-((trans)-4-(3-(trifluoromethyl)-5,6-dihydro[1,2,4]triazolo[4,3-a]pyrazin-7(8H)-yl)cyclohexyl)-7H-pyrrolo[2,3-d]pyrimidin-4-amine], the values for the IC50 in data set [1] and in data set [2] were 43 nM and 23 nM, respectively.

Regarding `CN1CCN([C@H]2CC[C@H](n3cc(-c4ccc(NC(=O)c5cc6ccccc6n5C)cc4)c4c(N)ncnc43)CC2)CC1` [Example 17, N-(4-(4-amino-7-((trans)-4-(4-methylpiperazin-1-yl)cyclohexyl)-7H-pyrrolo[2,3-d]pyrimidin-5-yl)phenyl)-1-methyl-1H-indole-2-carboxamide], the values for the IC50 in data set [1] and in data set [2] were 255 nM and 2.55 nM, respectively.

Take `Nc1ncnc2c1c(-c1ccc(Oc3ccccc3)cc1)cn2[C@H]1CC[C@@H](N[C@H]2CCNC2=O)CC1` [Example 53, (S)-3-(((cis)-4-(4-amino-5-(4-phenoxyphenyl)-7H-pyrrolo[2,3-d]pyrimidin-7-yl)cyclohexyl)amino)pyrrolidin-2-one]: in data set [1], inhibition was half-maximal at 30 nM (IC50). This compound yielded an inhibition at 10 µM in data set [3] of 97%.

Consider `COc1cc(-c2nn([C@H]3CC[C@H](N4CCN(C)CC4)CC3)c3ncnc(N)c23)ccc1NC(=O)c1cc2ccccc2n1C` [Example 14, N-(4-(4-amino-1-((trans)-4-(4-methylpiperazin-1-yl)cyclohexyl)-1H-pyrazolo[3,4-d]pyrimidin-3-yl)-2-methoxyphenyl)-1-methyl-1H-indole-2-carboxamide], for which the IC50 is 2750 nM in data set [1] and 0.77 nM in data set [2].

With `Nc1ncnc2c1c(-c1ccc(Oc3ccccc3)cc1)nn2[C@H]1CC[C@H](NC(=O)c2ccncc2)CC1` [Example 20, N-((trans)-4-(4-amino-3-(4-phenoxyphenyl)-1H-pyrazolo[3,4-d]pyrimidin-1-yl)cyclohexyl)isonicotinamide], the values for the IC50 in data set [1] and in data set [2] were 414 nM and 7.9 nM, respectively.

As for `COc1cc(-c2cn([C@H]3CC[C@@H](N4CCn5nccc5C4)CC3)c3ncnc(N)c23)ccc1NC(=O)c1cc2ccccc2n1C` [Example 38, N-(4-(4-amino-7-((cis)-4-(6,7-dihydropyrazolo[1,5-a]pyrazin-5(4H)-yl)cyclohexyl)-7H-pyrrolo[2,3-d]pyrimidin-5-yl)-2-methoxyphenyl)-1-methyl-1H-indole-2-carboxamide], the IC50 is 6580 nM in data set [1] and 2.8 nM in data set [2].

Regarding `Nc1ncnc2c1c(-c1ccc(Oc3ccccc3)cc1)cn2[C@H]1CC[C@H](NCc2ccncc2)CC1` [Example 44, 5-(4-phenoxyphenyl)-7-((trans)-4-((pyridin-4-ylmethyl)amino)cyclohexyl)-7H-pyrrolo[2,3-d]pyrimidin-4-amine], 15 nM corresponded to half-maximal inhibition in data set [1] (IC50). Besides, the inhibition at 10 µM in data set [3] is 93%.

With `COc1cc(-c2cn([C@H]3CC[C@@H](N4CCN(C)CC4)CC3)c3ncnc(N)c23)ccc1NC(=O)c1cc2ccccc2n1C` [Example 26, N-(4-(4-amino-7-((cis)-4-(4-methylpiperazin-1-yl)cyclohexyl)-7H-pyrrolo[2,3-d]pyrimidin-5-yl)-2-methoxyphenyl)-1-methyl-1H-indole-2-carboxamide], the IC50 came to 1330 nM in data set [1] and 7.2 nM in data set [2].

As to `Nc1ncnc2c1c(-c1ccc(Oc3ccccc3)cc1)cn2[C@H]1CC[C@H](NC(=O)c2cccnc2)CC1` [Example 19, N-((trans)-4-(4-amino-5-(4-phenoxyphenyl)-7H-pyrrolo[2,3-d]pyrimidin-7-yl)cyclohexyl)nicotinamide], the IC50 in data set [1] is 108 nM; in data set [2], 11.9 nM.

As for `Nc1ncnc2c1c(-c1ccc(Oc3ccccc3)cc1)nn2[C@H]1CC[C@H](NC(=O)c2ccccn2)CC1` [Example 23, N-((trans)-4-(4-amino-3-(4-phenoxyphenyl)-1H-pyrazolo[3,4-d]pyrimidin-1-yl)cyclohexyl)picolinamide], the IC50 in data set [1] stood at 548 nM; in data set [2], 12 nM.

Regarding `Nc1ncnc2c1c(-c1ccc(Oc3ccccc3)cc1)cn2[C@H]1CC[C@@H](NC(=O)c2ccncc2)CC1` [Example 12, N-((cis)-4-(4-5-(4-Phenoxyphenyl)-7H-pyrrolo[2,3-d]pyrimidin-7-yl)cyclohexyl)isonicotinamide], the values for the IC50 in data set [1] and in data set [2] were 44 nM and 4 nM, respectively.

With `Nc1ncnc2c1c(-c1ccc(Oc3ccccc3)cc1)cn2[C@H]1CC[C@@H](NCC(=O)O)CC1` [Example 9, 2-(((cis)-4-(4-Amino-5-(4-phenoxyphenyl)-7H-pyrrolo[2,3-d]pyrimidin-7-yl)cyclohexyl)amino)acetic acid.trihydrochloride], the IC50 in data set [1] came to 23 nM; in data set [2] it was 16 nM.

With `COc1cc(-c2cn([C@H]3CC[C@@H](N4CCn5nc(C)cc5C4)CC3)c3ncnc(N)c23)ccc1NC(=O)c1cc2ccccc2n1C` [Example 37, N-(4-(4-amino-7-((cis)-4-(2-methyl-6,7-dihydropyrazolo[1,5-a]pyrazin-5(4H)-yl)cyclohexyl)-7H-pyrrolo[2,3-d]pyrimidin-5-yl)-2-methoxyphenyl)-1-methyl-1H-indole-2-carboxamide], the results for the IC50 in data set [1] and in data set [2] were 3330 nM and 7.7 nM, respectively.

Turning to `COc1cc(-c2cn([C@H]3CC[C@H](N4CCn5c(cnc5C)C4)CC3)c3ncnc(N)c23)ccc1NC(=O)c1cc2ccccc2n1C` [Example 36, N-(4-(4-amino-7-((trans)-4-(3-methyl-5,6-dihydroimidazolo[1,5-a]pyrazin-7(8H)-yl)cyclohexyl)-7H-pyrrolo[2,3-d]pyrimidin-5-yl)-2-methoxyphenyl)-1-methyl-1H-indole-2-carboxamide], the IC50 in data set [1] stood at 409 nM; in data set [2], 4 nM.

With `COc1cc(-c2cn([C@H]3CC[C@H](N4CCn5c(C)cnc5C4)CC3)c3ncnc(N)c23)ccc1NC(=O)c1cc2ccccc2n1C` [Example 39, N-(4-(4-amino-7-((trans)-4-(3-methyl-5,6-dihydroimidazo[1,2-a]pyrazin-7(8H)-yl)cyclohexyl)-7H-pyrrolo[2,3-d]pyrimidin-5-yl)-2-methoxyphenyl)-1-methyl-1H-indole-2-carboxamide], the IC50 was 4620 nM in data set [1] and 4 nM in data set [2].

On to `CC(C)(C)N1CCN([C@H]2CC[C@H](n3cc(-c4ccc(Oc5ccccc5)cc4)c4c(N)ncnc43)CC2)CC1` [Example 13, 7-((trans)-4-(4-(tert-Butyl)piperazin-1-yl)cyclohexyl)-5-(4-phenoxyphenyl)-7H-pyrrolo[2,3-d]pyrimidin-4-amine], for which the figures for the IC50 in data set [1] and in data set [2] were 17 nM and 8 nM, respectively.

`CC(C)N1CCN([C@H]2CC[C@H](n3cc(-c4ccc(Oc5ccccc5)cc4)c4c(N)ncnc43)CC2)CC1` [Example 42, 7-((trans)-4-(4-Isopropylpiperazin-1-yl)cyclohexyl)-5-(4-phenoxyphenyl)-7H-pyrrolo[2,3-d]pyrimidin-4-amine] came in with an IC50 in data set [1] of 22 nM. The same compound returned an inhibition at 10 µM in data set [3] of 88%.

Turning to `CN1CCN([C@H]2CC[C@H](n3nc(-c4ccc(NC(=O)c5cc6ccccc6n5C)cc4)c4c(N)ncnc43)CC2)CC1` [Example 28, N-(4-(4-amino-1-((trans)-4-(4-methylpiperazin-1-yl)cyclohexyl)-1H-pyrazolo[3,4-d]pyrimidin-3-yl)phenyl)-1-methyl-1H-indole-2-carboxamide], the concentration for half-maximal inhibition (IC50) in data set [1] was 1080 nM; in data set [2], 1.6 nM.

As to `CN1CCN([C@H]2CC[C@H](n3nc(-c4ccc(Oc5ccccc5)cc4)c4c(N)ncnc43)CC2)CC1` [Example 59, 1-((trans)-4-(4-Methylpiperazin-1-yl)cyclohexyl)-3-(4-phenoxyphenyl)-1H-pyrazolo[3,4-d]pyrimidin-4-amine], the IC50 turned out to be 55 nM in data set [1] and 3 nM in data set [2].

As for `Nc1ncnc2c1c(-c1ccc(Oc3ccccc3)cc1)cn2[C@H]1CC[C@H](NCC(=O)O)CC1` [Example 3, 2-(((trans)-4-(4-Amino-5-(4-phenoxyphenyl)-7H-pyrrolo[2,3-d]pyrimidin-7-yl)cyclohexyl)amino)acetic acid.trihydrochloride], the IC50 in data set [1] was 24 nM; in data set [2], 4.2 nM.
